Test results taken from patent US12163156B2, “Cell induction method” (INSTITUTE OF ZOOLOGY, CHINESE ACADEMY OF SCIENCES, priority 2018, dated 2024).

Columns and labels:
[1] = test system: ICR female mice; test: In vivo experiment: ventral fat content after injection into the ventral side of mice; set-up: species or system mouse; conditions: 0.5 mg/kg injected into the ventral side once a day; for ventral fat content: 19 days, drug stopped for 32 days, vs DMSO group
Protocol: In vivo experiment: the same batch of 6-8 week-old ICR female mice are selected and randomly divided into two groups, 5 in each group. As to one group, small molecule (−)-Blebbistatin or (S)-(−)-Blebbistatin O-Benzoate (0.5 mg/kg, dissolved in 10% DMSO+2% Tween 80+normal saline) is injected into the ventral side of the mice; as to the other group, the same amount of DMSO as the small molecule group is injected in the same way as the experimental group. The injection is performed once a day, 19 days after the injection, and the drug is stopped for 32 days. The mice are sacrificed by cervical dislocation, and the ventral fat content is observed.

[2] = test system: human embryonic hepatocytes; test: In vitro amplification of human embryonic hepatocytes; type: cell-based; conditions: for cells amplified (multiple): 12 days subculturing (3 generations in total)
Protocol: (1) Coating the plate. The cell culture plate is coated with rat tail tendon collagen (Thermo scientific, A1048301, 3 mg/mL) at a concentration of […]. Taking a 24-well plate as an example, the bottom area of each hole is 1.9 cm^2, and […] is needed per well (about 3.2 μl); 3.2 μl of rat tail tendon collagen is dissolved in 500 μl of 20 mM glacial acetic acid, adding to the well to incubate in cell culture incubator at 37° C. for 1 h, and after aspirating and abandoning the solution, washing with PBS for 3 times.
(2) Resuscitation of human embryonic hepatocytes. Human embryonic hepatocytes are taken out from liquid nitrogen tanks (freezing date: Jan. 15, 2014; freezing medium: cell banker 2; the number of frozen cells: 2×10^7/tube), quickly placing in a 37° C. water bath, immediately after thawing the cells are sucked into a 15 mL centrifuge tube containing 5 mL of hepatocyte medium (control group), then centrifuging at 50 g, 4° C. for 5 min. The supernatant is discarded, then the cells are resuspended in 500 μl of hepatocyte medium with the number of 1.16×10^6 cells, and the cell resuscitation rate is 5.8%.
(3) Seeding the human embryonic hepatocytes. […] After hepatocyte medium containing 10 μM small molecule (−)-Blebbistatin, and hepatocyte medium containing 20 μM small molecule (−)-Blebbistatin hepatocyte medium are respectively seeded 24 h, for each group the digested cells from 3 wells are counted to calculate the cell attachment rate. After seeding for 72 h, for each group 3 wells of cells are digested and counted. […] A portion of the cells per well (⅖ of the cells counted) are taken for RNA extraction to detect the expression of human hepatocyte-associated genes.
(4) The first passage of human embryonic hepatocytes. […] A portion of the cells per well (⅖ of the cells counted) are taken for RNA extraction to detect the expression of human hepatocyte-associated genes.
(5) The second passage of human embryonic hepatocytes. […] The medium is changed every 2 days, and after continuing to culture for 144 h (6 days), the cells are digested and counted. […]

[3] = test system: adult hepatocytes; test: Small molecule amplification of adult hepatocytes; type: cell-based, human; conditions: for number of cells after 6 days of culturing: control group 1.59×10^4
Protocol: (1) The method for coating the plate is as described above.
(2) Resuscitation and culture of adult hepatocytes. Adult hepatocytes (M00995-P […] human, Bioreclamation IVT) are taken out from a liquid nitrogen tank, then quickly placing in a 37° C. water bath, after thawing the cells are added to 5 mL of 37° C. pre-heated hepatocyte inoculation medium (InVitroGRO CP Medium), after counting the cells are inoculated in a 24-well plate at the density of 9×10^4/well, 2-4 h after hepatocyte adherence, aspirating and abandoning the hepatocyte inoculation medium, and respectively adding hepatocyte culture control medium, 10 μm small molecule medium, and 20 μm small molecule medium. The media are changed every 2 days. The number of cells is estimated from the photograph on day 2. After 4 days, the cells of the 20 μm small molecule medium group are changed to culture in 10 μm small molecule medium. The cells are counted after co-culturing for 6 days. A portion of the cells are taken for RNA extraction to detect the expression of human hepatocyte-specific genes.
(3) Passage of adult hepatocytes. 4.7×10^4 of the hepatocytes cultured in the above-mentioned control group, and 8×10^4 of the hepatocytes cultured 10 μm small-molecule medium are respectively re-inoculated into the 24-well plates coated with rat tail tendon collagen, and the media are changed every two days. After 6 days, photos are taken to record cell growth.

[4] = test system: mouse adult primary hepatocytes; test: In vitro amplification of mouse adult primary hepatocytes (Alb-GFP)
Description: Alb-Cre mice are introduced from BRL Medicine, Cre recombinase is only expressed in mature hepatocytes expressing albumin; Rosa26/mTmG mice are introduced from Charles River, and a red and green fluorescence reporter system is incorporated into the Rosa26 locus of this kind of mouse; normally a tomato red fluorescent protein is expressed in the cells, while in the case of Cre recombination it is changed to express a green fluorescent protein (GFP). Alb-Cre adult mice are hybridizedwith Rosa26/mTmG mice to obtain offspring Alb-Cre×Rosa26/mTmG mice, and mature hepatocytes of the offspring are labeled green, and other tissue cells present the red fluorescent.
Alb-Cre×Rosa26/mTmG adult mice are sacrificed by cervical dislocation, taking out the hepatic lobes, cutting into small pieces, blowing and washing repeatedly with 100 volumes of pre-cooled PBS to remove the blood cells until the washing solution is not red; adding 3-5 volumes of collagenase IV (ThermoFisher, 17104019, preheated at 37° C.) to digest in incubator at 37° C. for 30-40 min, and blowing 2-3 times during the digestion, then centrifuging and removing the supernatant. […] The mouse hepatocyte medium comprises: DMEM/F12 (gibco, 10565018), adding N2 additive (100×, Gibco, 17502048), B27 additive (50×, Gibco, 17504044), 5% bovine serum albumin (1000×, Sigma, A8022), β-mercaptoethanol (1000×, Gibco, 21985023), GlutaMAX (200×, Gibco, 35050-061), non-essential amino acids (100×, Gibco, 11140-050), 1 μg/mL insulin (Roche, 11376497001), hepatocyte growth factor (10 ng/mL, R&D, 294-HG-025), transforming growth factor β inhibitor A83-01 (5 μm, stemgent, 04-0014), glycogen synthase kinase 3β inhibitor Chir99021 (6 μM, stemgent, 04-0004-10), macrophage stimulating protein 1 and 2 inhibitor XMU-MP-1 (2-5 μM, MCE, HY-100526) fibroblast growth factor 4 (10 ng/mL, R&D, 5846-f4-025), double antibiotics.
Without addition of Myosin II inhibitor (−)-Blebbistatin or (S)-(−)-Blebbistatin O-Benzoate, an equal volume of DMSO is added as a control, and the cells are respectively subcultured 3 times (P3), 5 times (P5), and seven times (P7).

[5] = test system: CYP1A2 gene; test: CYP1A2 gene induction with omeprazole in small molecule-amplified adult hepatocytes; type: cell-based, human; conditions: 50 μm omeprazole in 10 μm small molecule medium, 48 hours, vs DMSO
Protocol: (4) 10CYP1A2 adult hepatocytes amplified in 10 μm small medium. 3×10^5 hepatocytes are induced and inoculated in a 24-well plate coated with rat tail tendon collagen, after culturing in a 10 μm small molecule medium for 24 h, then replacing the medium with a 10 μm small molecule medium with 50 μm omeprazole, the control group is a 10 μm small molecule medium containing DMSO, and 48 hours later the cells are collected to detect the expression of the CYP1A2 gene.

[6] = test system: Mouse embryonic fibroblasts; test: Transdifferentiation of mouse embryonic fibroblasts into adipocytes, oil red O staining; type: cell-based; conditions: 10 μM added to the original adipocyte induction medium (Myosin inhibitor + BMP4); P<0.001
Protocol: Taking a 12-well plate as an example (coming, 3335), for each well, preparing 20 μg/ml Matrigel solution (BD, 354277) with 1×DMEM and coating for 12 hours; then the coating solution is removed, washing with 1×PBS. Mouse embryonic fibroblasts (C57, prepared by E13.5) or adult foreskin fibroblasts (HFF20y, Beijing Stem Cell Bank) are uniformly seeded in each well, 1×10^4 cells per well; incubating in basic medium (high glucose DMEM (Gibco, C12430500BT), double antibiotics) added with 10% fetal bovine serum (Gibco, 16000-044) for 24 hours. The medium is removed, then washing with PBS. […] The identification of adipocytes is performed by oil red staining of cells, oil red O staining solution (cell-specific, Solarbio, […]) is used, and the details are as follows: removing the medium, adding ORO Fixative to fix for 10-15 min, removing the ORO Fixative, and placing in flowing air for 10-15 min. At this time, ORO Stain is prepared in a ratio of ORO Stain A:ORO Stain B=3:2, standing for 10 min after mixing, then adding to the well; the staining solution is removed after dip dyeing for 15 min, adding 60% isopropanol to rinse for 20-30 s, and washing with distilled water for 3 times, then taking photos under an optical microscope. The neutral fats are orange-red or orange-colored, and the phospholipids are pink.

`Cc1ccc2c(c1)C(=O)C1(O)CCN(c3ccccc3)C1=N2` (single isomer, unassigned; (-)) [(−)-Blebbistatin] was tested, and the “ventral fat content” value [1] was “significantly increase”, the “ventral fat content” value ([1]; listed as Ble) was “significant increase” and the “human hepatocyte-specific genes albumin and alpha-fetoprotein expression” value ([2]; 10 μM and 20 μM small molecule media, 12 days subculturing, real-time quantitative PCR) was “still expressed”. The “cells amplified (multiple)” value ([2]; 10 μM small molecule medium) was “about 22.1 times”, the “cells amplified (multiple)” value ([2]; 20 μM small molecule medium) was “about 13.0 times” and the “number of cells after 6 days of culturing” value ([3]; 10 μm group) was 6.47×10^4 (SD=1.24). For the same compound, the “subculture of human hepatocytes” value ([3]; 10 μm small molecule medium, control medium cannot) was “can make human hepatocytes subculture”, the “number of cells after 6 days of culturing” value ([3]; # group: 20 μm for 4 days then 10 μm for 2 days) was 9.47×10^4 (SD=0.98) and the “expression of human hepatocyte specific genes albumin, AFP, CYP1A2, CYP3A4” value ([3]; adult hepatocytes amplified with small molecules) was “still express”. For the same compound, the “expression of the proliferating cell nuclear antigen (PCNA) gene” value ([3]; small molecule group vs control group) was “significantly higher”, the “amplification effect on adult hepatocytes (cell number day 6 / day 2)” value ([3]; small molecule groups vs control) was “significant amplification effect” and the “hepatocyte clusters with Alb expression” value ([4]; 5 μM in mouse hepatocyte medium, fibronectin-coated dish, one week) was “green hepatocyte clusters with Alb expression are observed”. For the same compound, the subculturing in vitro ([4]; mouse hepatocytes in medium with Myosin inhibitor) was “at least 20 generations” and the “long-term amplification of AlB-GFP-positive hepatocytes” value ([4]; vs DMSO control, subcultured P3, P5, P7) was “significantly promotes”.
For `COc1ccc2[nH]c([S+]([O-])Cc3ncc(C)c(OC)c3C)nc2c1` (stereo not shown) [omeprazole], the “expression of CYP1A2 gene” value [5] was “can be increased”.
`Cc1cccc(-c2nn(C(=S)Nc3ccccc3)cc2-c2ccnc3ccccc23)n1` [A83-01] was tested, and the adipocyte induction efficiency [6] was “up to 20%”.
`NC(=O)c1ccc(-c2nc(-c3ccc4c(c3)OCO4)c(-c3ccccn3)[nH]2)cc1` [SB431542] gave an adipocyte induction efficiency [6] of 18%.
With `Cc1ccc2c(c1)C(=O)[C@]1(OC(=O)c3ccccc3)CCN(c3ccccc3)C1=N2` [(S)-(−)-Blebbistatin O-Benzoate] the “ventral fat content increase” value ([1]; without optimization) was “about 50%” and the passaged in vitro ([4]; treated mouse hepatocytes) was “more than 20 times”.
